Source: PMC7072103, “Simultaneous Determination of 13 Constituents of Radix Polygoni Multiflori in Rat Plasma and Its Application in a Pharmacokinetic Study” (International Journal of Analytical Chemistry, 2020)

Assays:
[1] = Pharmacokinetic study in rats after oral administration of RPM extract (UPLC-MS/MS of plasma); assay type: in vivo, Sprague-Dawley rats; settings: rat plasma, single oral dose of RPM extract 36 g/kg, n = 6, mean ± SD
Procedure: The analysis was performed on an AB Sciex API 5500 Q Trap mass spectrometer (Toronto, Canada), interfaced with a Waters Acquity UPLC separation module. Empower 3.0 and Analyst 1.62 software were used to control UPLC and mass spectrometer, respectively.
Chromatographic separation was achieved on a waters HSS C18 column (100 × 2.1 mm, 1.8 μm, kept at 40°C) using a mobile phase containing 0.025% formic acid that consisted of solvent A (water) and solvent B (acetonitrile). The mobile phase was delivered at 0.3 mL/min, and a gradient program was used as follows: 0-1 min, held 5% to 25% solvent B; 1–3.5 min, linear gradient from 25% to 35% solvent B; 3.5–5 min, linear gradient from 35% to 40% solvent B; 5-6 min, linear gradient from 40% to 60% solvent B; 6-6.1 min, linear gradient from 60% to 95% solvent B; 6.1–8 min, linear gradient from 95% to 100% solvent B; and 8-9 min, held 5% solvent B.
The MS detection was set in positive multiple reaction monitoring (MRM) mode for the analytes and IS. The turbo spray temperature was maintained at 500°C. The nebulizer gas (gas 1), heater gas (gas 2), and curtain gas was set at 45, 50, and 45 psi, respectively. The interface heater was on. The precursor ion, corresponding product ion and dwell time along with declustering potential (DP), entrance potential (EP), collision energy (CE), and collision exit potential (CXP) for each compound were optimized with standard substance. The dwell time was 50 ms for all analytes. The EP and CXP were set at –10 V and −16 V, respectively.
Sample preparations were made using the protein precipitation process. 50 μL thawed plasma, 10 μL IS working solution (puerarin 10 μg/mL), and 150 μL acetonitrile were added to a 1.5 mL tube in that order. After vortexed for 5 min and centrifuged at 12,000 g for 5 min at 4°C, 150 μL of the supernatant was transferred and a 5 μL was injected into the UPLC-MS/MS instrument for analysis.
Male Sprague-Dawley rats (200–240 g) were obtained from Beijing Vital River Laboratory Animal Technology Co., Ltd. (Beijing, China) (SCXK 2016(jing)-0006). The animals were maintained in SPF animal room at temperature 22 ± 2°C, 60 ± 5% humidity, and 12/12 h day/night cycle. All procedures were approved by the Institutional Animal Ethics Committee and performed in accordance with the Regulations of Experiment Animal Administration issued by the State Committee of Science and Technology of China. RPM extract suspended in an equal volume of 5% CMC-Na solution and orally administered to the six rats at a single dose of 36 g/kg (dose calculated as grams of crude materials used to create the extract per kilogram of rat body weight). The dose was set at a subtoxic level to investigate the pharmacokinetic profiles of the constituents of RPM and were approximately 72 times the upper dose (6 g/day) of human recommended by the 2015 edition of Chinese Pharmacopoeia (converted to rat dose based on body surface area conversion). The calculated doses of compounds based on the contents in the extract were 7.38, 14.8, 13.7, 8.82, 15.5, 11.2, 55.8, 1.08, 1170, 11.3, 25.7, 131.4, and 13.0 mg/kg for chrysophanol, emodin, aloe-emodin, rhein, physcion, questin, citreorosein, questinol, TSG, TG, CG, EG, and PG, respectively. Rats were fasted for at least 12 h before the experiments and had free access to water. Blood samples (∼0.25 mL) were collected from the retinal venous plexus into heparinized 1.5 mL polythene tubes before administration and 5, 15, and 30 min and 1, 2, 4, 6, 8, 12, and 24 h after dosing RPM extract at dose of 36 g/kg. The plasma was immediately separated from blood samples and stored frozen at −70°C until analysis.
The pharmacokinetic parameters were calculated using the pharmacokinetic software Phoenix® WinNonlin®, version 7.0 (Scientific Consulting Inc., Apex, NC, USA). The peak plasma concentration (Cmax) and time to reach Cmax (Tmax) were read directly from the experimental data. […]

[2] = Stability of the analytes in rat plasma and processed plasma samples; assay type: in vitro ADME; settings: for Stability, post-preparative: acetonitrile-precipitated plasma supernatant, 24 h at 6°C in autosampler; for Stability, long-term (–70 °C) / Stability, short-term / Stability, freeze–thaw (three cycles): rat plasma; for Stability, long-term (–70 °C): 3 months at −70°C; for Stability, short-term: 4 h at room temperature; for Stability, freeze–thaw (three cycles): −70°C to room temperature
Procedure: The stability of the 13 analytes in rat plasma were assessed by analyzing samples spiked 0.2, 2.7, and 58.3 ng/mL for emodin, aloe-emodin, questin, citreorosein, questinol, TG, CG, EG, PG; 0.6, 8.1, and 175 ng/mL for TSG; 1, 13.5, and 291.6 ng/mL for rhein, physcion; and 2, 27, and 583.2 ng/mL for chrysophanol, respectively, under four conditions: (1) short-term storage for 4 h at room temperature; (2) long-term storage for (3 months at −70°C; (3) three freeze-thaw cycles; and (4) posttreatment storage for 24 h at 6°C setting in UPLC autosampler. The concentrations obtained were compared with the nominal values of the spiked samples. The stability was calculated as the percent of the measured concentration to the initial concentration at time zero. The analytes were considered stable if the assay values were within the acceptable limit of accuracy (85.0∼115%).

[3] = high QC (58.3 ng/mL; TSG 175; rhein, physcion 292; chrysophanol 583)
[4] = low QC (0.2 ng/mL; TSG 0.6; rhein, physcion 1; chrysophanol 2)
[5] = middle QC (2.7 ng/mL; TSG 8.1; rhein, physcion 13.5; chrysophanol 27)

Cc1cc(O)c2c(c1)C(=O)c1cc(O)cc(O)c1C2=O [Emodin, 1,3,8-trihydroxy-6-methylanthracene-9,10-dione]
AUC(0-inf) ([1]; male, Sprague-Dawley, in vivo, read-out: AUC0–∞): 801 ± 233 ng·h/mL | Cmax ([1]; male, Sprague-Dawley, in vivo, read-out: Cmax): 175 ± 33.8 ng/mL | MRT inf ([1]; male, Sprague-Dawley, in vivo, read-out: MRT0–∞): 11.8 ± 5.27 h | Tmax ([1]; male, Sprague-Dawley, in vivo, read-out: Tmax): 0.19 ± 0.09 h | half-life ([1]; male, Sprague-Dawley, in vivo, read-out: t1/2 (converted)): 8.37 ± 4.17 h | AUC(0-t) ([1]; male, Sprague-Dawley, rat, in vivo, po, 36 g/kg, read-out: AUC0–t): 801 ± 187 ng·h/mL | AUC0–t [1]: 686 ± 187 ng·h/mL | Stability, post-preparative [2, 3]: 98.1% | Stability, post-preparative [2, 4]: 101% | Stability, post-preparative [2, 5]: 103% | Stability, long-term (–70 °C) [2, 3]: 101% | Stability, long-term (–70 °C) [2, 4]: 100% | Stability, long-term (–70 °C) [2, 5]: 102% | Stability, short-term [2, 3]: 106% | Stability, short-term [2, 4]: 93.6% | Stability, short-term [2, 5]: 105% | Stability, freeze–thaw (three cycles) [2, 3]: 104% | Stability, freeze–thaw (three cycles) [2, 4]: 102% | Stability, freeze–thaw (three cycles) [2, 5]: 104%
